Reference: patent US6894050B2, “5-HT receptor ligands and uses thereof” (Pfizer Inc., priority 2001, dated 2005)
Where a name gives a salt, the structure may show the parent alone.

Legend:
[1] = biological target: T1, human 5HT2c receptor (Homo sapiens, UniProt P28335); assay: 5HT2c Binding Procedure (competition binding against 3H-5HT); conditions: Swiss 3T3 mouse cells transfected with human 5HT2c receptor
T1 construct: expressed in transfected cells; host or cells: Swiss 3T3 mouse cells
T1 sequence (P28335 33-458): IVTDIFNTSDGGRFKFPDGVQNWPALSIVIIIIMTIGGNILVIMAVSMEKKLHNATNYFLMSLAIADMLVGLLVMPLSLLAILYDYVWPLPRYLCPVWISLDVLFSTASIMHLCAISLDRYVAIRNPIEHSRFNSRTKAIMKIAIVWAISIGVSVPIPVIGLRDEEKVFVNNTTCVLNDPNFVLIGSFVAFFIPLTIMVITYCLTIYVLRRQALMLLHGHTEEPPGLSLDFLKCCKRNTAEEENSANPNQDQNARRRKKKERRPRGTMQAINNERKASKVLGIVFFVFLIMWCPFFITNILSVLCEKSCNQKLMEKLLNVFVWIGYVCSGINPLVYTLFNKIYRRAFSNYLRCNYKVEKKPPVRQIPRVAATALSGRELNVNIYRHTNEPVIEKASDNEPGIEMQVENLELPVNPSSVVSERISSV
Description: Affinity of compounds at the serotonin 5HT2c binding site was determined by competition binding in Swiss 3T3 mouse cells (available from the American Type Culture Collection (ATCC), Manassas, Va.) transfected with the human 5HT2c receptor against 3H-5HT. The method was adapted from Roth et al., J. of Pharm. And Exp. Therap., 260(3), 1362-1365 (1992). Cells were grown in DMEM high glucose medium, harvested, homogenized, centrifuged, and resuspended in 50 mM Tris-HCL. They were incubated at 37° C. for 15 minutes, centrifuged, and then resuspended into assay buffer (50 mM Tris-HCl, 4 mM CaCl2, 0.1% ascorbic acid, and 100 μM pargyline at pH 7.7) at 100 volumes per gram. Assay tubes contained 25 μL of 10 nM ^3H-5HT (1 nM final conc.), and 25 μl of vehicle (assay buffer), blank (10 μM mianserin), or test compound (10× final volume). 200 μl of tissue homogenate was added to each tube, vortexed, and incubated for 30 minutes at 37° C. Samples were then rapidly filtered under vacuum with a Skatron™ cell harvester (available from Molecular Devices Corporation, Sunnyvale, Calif.) using GF/B filters presoaked in 0.5% polyethyleneimine (PEI), and washed with 2×5 mL cold 50 mM Tris-HCl. Filter mats were removed and counted in a Wallac Betaplate counter (available from PerkinElmer Life Sciences, Gaithersburg, Md.). […]

[2] = biological target: T2, 5-HT2c receptor (5-HT2c expressed NIH 3T3 cells) (UniProt P28335); assay: Functional Assay (FLIPR calcium fluorescence, Fluo 4-AM); type: cell-based
T2 sequence (P28335 1-458): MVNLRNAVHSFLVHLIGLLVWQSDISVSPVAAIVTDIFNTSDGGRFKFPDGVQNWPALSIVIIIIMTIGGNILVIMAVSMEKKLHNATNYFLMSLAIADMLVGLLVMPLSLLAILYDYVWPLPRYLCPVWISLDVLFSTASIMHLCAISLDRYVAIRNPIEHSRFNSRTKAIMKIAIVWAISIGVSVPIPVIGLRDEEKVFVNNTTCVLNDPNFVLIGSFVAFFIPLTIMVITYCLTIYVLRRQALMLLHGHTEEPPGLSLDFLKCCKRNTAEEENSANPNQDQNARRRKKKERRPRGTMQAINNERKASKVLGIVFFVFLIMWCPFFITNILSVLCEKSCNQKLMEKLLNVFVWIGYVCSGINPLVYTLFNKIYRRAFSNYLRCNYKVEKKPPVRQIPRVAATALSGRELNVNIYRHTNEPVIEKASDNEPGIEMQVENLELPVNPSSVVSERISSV
Description: […] Forty eight (48) hrs later the cells were loaded with the calcium sensitive dye, Fluo 4-AM (4 μM dissolved in DMSO containing pluronic acid) in serum free DMEM in the presence of probenicid (2.5 mM) for 75 minutes at 37° C. in a CO2 incubator. Unincorporated dye was removed by washing 3 times with a HEPES-buffered saline containing probenicid (2.5 mM) using a Skatron™ cell washer (final volume 30 μL).
Test compound additions were made simultaneously to all 384 wells after 20 seconds of baseline recording. Concentration-response curves were generated using Graphpad Prism™ (available from GraphPad Software, Inc., San Diego, Calif.) and agonist efficacies were generated as % of the response to 10 μM 5-HT (considered as 100%).

[3] = biological target: T3, rat 5HT2A receptor (Rattus norvegicus, UniProt P14842); assay: 5HT2A Binding Procedure (competition binding using 125I-DOI); conditions: NIH 3T3 mouse cells transfected with rat 5HT2A receptor, read-out: Ki values for 5HT2a binding (upper end of range)
T3 construct: expressed in transfected cells; host or cells: NIH 3T3 mouse cells
Description: Affinity of compounds at the serotonin 5HT2A binding site was determined by competition binding in NIH 3T3 mouse cells transfected with the rat 5HT2A receptor using 125I-DOI. The method was adapted from Leonhardt et al., Molecular Pharmacology, 42, 328-335 (1992). Frozen cell paste was homgenized in 50 mM tris-HCl buffer pH 7.4 containing 2 mM MgCl2 using a Polytron and centrifuged at 45000×g for ten minutes. The resulting pellet was resuspended in fresh ice-cold 50 mM tris-HCl buffer pH 7.4 containing 2 mM MgCl2 using a Polytron™ and centrifuged again at 45000×g for ten minutes. The final pellet was resuspended in 50 mM tris-HCl buffer pH 7.4 containing 2 mM MgCl2 at a concentraion of 5 mg/mL. Wells in a 96 well plate contained 25 μL of 0.7 nM 125I-DOI (70 pM final conc.), and 25 μL of vehicle (assay buffer), blank (10 μM cinanserin), or test compound (10× final volume). […] Filter mats were removed, dried and counted in a Wallac Betaplate counter. Concentration-response curves of the % inhibition of specific binding and log concentration by test compounds were used to determine the IC50 for each compound and the Ki value calculated based on the Cheng-Prusof equation (Ki=IC50/(1+(L/Kd)), where L is the concentration of the radioligand used in the binding assay and the Kd was based on previous saturation studies with the radioligand.

T3 sequence (P14842 whole entry): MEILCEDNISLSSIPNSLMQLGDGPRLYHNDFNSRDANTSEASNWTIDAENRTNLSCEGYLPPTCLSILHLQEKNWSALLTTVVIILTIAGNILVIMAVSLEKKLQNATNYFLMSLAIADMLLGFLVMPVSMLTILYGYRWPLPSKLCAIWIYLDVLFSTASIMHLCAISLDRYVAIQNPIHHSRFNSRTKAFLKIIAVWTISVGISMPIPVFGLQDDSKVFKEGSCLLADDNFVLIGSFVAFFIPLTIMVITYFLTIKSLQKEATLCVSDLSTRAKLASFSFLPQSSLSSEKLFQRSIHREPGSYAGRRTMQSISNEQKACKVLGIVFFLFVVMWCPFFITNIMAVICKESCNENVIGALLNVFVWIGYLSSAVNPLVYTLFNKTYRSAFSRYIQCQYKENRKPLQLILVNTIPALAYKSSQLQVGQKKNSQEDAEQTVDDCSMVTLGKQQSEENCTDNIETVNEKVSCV

| Compound | functional behaviour at 5-HT2c [2] | further results |
| --- | --- | --- |
| c1ccc(COc2cncc(N3CCNCC3)n2)nc1 [Example 1-AW, 6′-(Pyridin-2-ylmethoxy)-3,4,5,6-tetrahydro-2H-[1,2′]bipyrazinyl hydrochloride salt] | – | Ki [1]: 586 nM |
| COCC[C@H](CC1(C(=O)NCCCc2ccc(Cl)cc2)CCCC1)C(=O)O (as salt: sodium) | – | melting point: 214 to 216 °C |
| Cl.Clc1ccc(CNc2cncc(N3CCNCC3)n2)cc1 [Example 4-C, (4-Chloro-benzyl)-(3,4,5,6-tetrahydro-2H-[1,2′]bipyrazinyl-6′-yl)-amine hydrochloride salt] | acted as an antagonist | – |
| C[C@H](Oc1cncc(N2CCNCC2)n1)c1ccccc1 [Example 1-AF, 6′-[(1S)-Phenyl-ethoxy]-3,4,5,6-tetrahydro-2H-[1,2′]bipyrazinyl] | acted as an antagonist | – |
| Cc1cccc(CNc2cncc(N3CCNCC3)n2)n1 [Example 4-R, (6-Methyl-pyridin-2-ylmethyl)-(3,4,5,6-tetrahydro-2H-[1,2′]bipyrazinyl-6′-yl)-amine fumarate salt] | – | Ki [3]: 1000 nM |
| CN1CCN(c2cncc(OCc3cccc(F)c3)n2)CC1 [Example 1-AT, 6′-(3-Fluoro-benzyloxy)-4-methyl-3,4,5,6-tetrahydro-2H-[1,2′]bipyrazinyl] | acted as an antagonist | – |
| C[C@H]1CN(c2cncc(OCc3cccc(F)c3)n2)CCN1 [Example 1-AL, 6′-(3-Fluoro-benzyloxy)-(3S)-methyl-3,4,5,6-tetrahydro-2H-[1,2′]bipyrazinyl] | acted as an antagonist | – |
| FC(F)(F)c1cc(COc2cncc(N3CCNCC3)n2)cc(C(F)(F)F)c1 [Example 1-W, 6′-(3,5-Bis-trifluoromethyl-benzyloxy)-3,4,5,6-tetrahydro-2H-[1,2′]bipyrazinyl] | acted as an antagonist | – |
| Cc1cc(C)cc(COc2cncc(N3CCNCC3)n2)c1 [Example 1-AA, 6′-(3,5-Dimethyl-benzyloxy)-3,4,5,6-tetrahydro-2H-[1,2′]bipyrazinyl] | acted as an antagonist | – |
